Test system: epichaperomes
Assay: Epichaperome determination by native PAGE / SDS-PAGE immunoblotting of MDA-MB-468 tumors
Type: in vivo, mouse
Description: For epichaperome analysis, tumors were cut into small pieces and homogenized in native lysis buffer (20 mM HEPES pH 7.5, 50 mM KCl, 5 mM MgCl2, 0.01% NP40, 20 mM Na2MoO4) containing protease and phosphatase inhibitors using BioMasher® II Micro Tissue Homogenizers (VWR, Radnor, PA, USA). Samples were left on ice for 30 min and then subjected to native PAGE analysis. Protein concentrations were determined using the BCA kit (Pierce, Waltham, MA, USA) according to the manufacturer’s instructions. Protein lysate (10–60 µg) was loaded onto 5.5% native gel and resolved at 4 °C, transferred to nitrocellulose membrane, and probed with the indicated primary antibodies: HSP90α (AB2928; RRID:AB_303423; 1:8000) from Abcam (Cambridge, UK), HOP (ADI-SRA-1500; RRID:AB_10618972; 1:1000) from Enzo and CDC37 (4793S; RRID:AB_10695539; 1:1000) from Cell Signaling (Danvers, MA, USA). Membranes were then incubated with a 1:5000 dilution of a peroxidase-conjugated corresponding secondary antibody. Detection was performed using the ECL Enhanced Chemiluminescence Detection System (Pierce™ ECL Western Blotting Substrate) according to the manufacturer’s instructions.
In cellular studies, it has been proposed that zelavespib, upon binding, becomes trapped inside the epichaperome assemblies, leading to the disassembly of epichaperomes into individual components. However, this biochemical mechanism’s impact on the residence time of zelavespib at the site of action remains poorly understood in vivo. To investigate this, we analyzed the epichaperome target in tumors at 30 h and 72 h post-zelavespib administration using non-denaturing electrophoresis (native PAGE) (Figure 4a–c).
Figure 4 Epichaperome modulation by zelavespib in MDA-MB-468 tumor-bearing mice. (a) native-PAGE (top) or SDS-PAGE (bottom) followed by immunoblotting of epichaperome components (i.e., constituent chaperones and co-chaperones) in MDA-MB-468 tumors. Tumor-bearing mice were injected with a single dose of 50 mg/kg zelavespib, and tumor analysis was performed after sacrificing the mice at 30 h and 72 h post-zelavespib administration (n = 5 mice per time-point). Gels, representative tumors. To account for tumor heterogeneity (i.e., MDA-MB-468 are aggressive tumors with highly proliferative periphery adjacent to areas of necrosis), several cuts from the same tumor were analyzed when tumor size permitted. β-actin and GAPDH, protein loading controls; black arrowhead, biochemical signature of folding HSP90 pools as detected by native PAGE separation and immunoblotting; red arrowhead, non-specific signal, LE, low exposure; HE, high exposure. (b) Graph, data are presented as means ± s.e.m., n = 7, one-way ANOVA with Dunnett’s post hoc of tumors as in a. Because HSP90 in epichaperomes was not well separated from the folding HSP90 pool, we performed epichaperome quantification using CDC37 in epichaperomes as a surrogate marker. (c) Cartoon showing the proposed biochemical mechanism in vivo. Initially, zelavespib becomes trapped when epichaperomes bound, a mechanism that results in epichaperome disassembly, with no change in the expression level of epichaperome constituents. We propose that the initial trapping stage of epichaperomes is a main contributing factor to the extended on-target residence time observed for this agent in clinical settings. Zelavespib’s residence time in tumors seems to be dictated by target disassembly kinetics rather than by frank drug–target unbinding kinetics.

## CC(C)NCCCn1c(Sc2cc3c(cc2I)OCO3)nc2c(N)ncnc21 [zelavespib]
30 h post single 50 mg/kg
  total chaperone levels on SDS-PAGE: no corresponding alteration
30 h post single 50 mg/kg, CDC37 in epichaperomes as surrogate marker
  increase in epichaperome signal on native PAGE compared to baseline: ~2.29 fold
72 h post single 50 mg/kg
  decrease of epichaperome levels compared to baseline: approximately 1.8 fold
  total chaperone levels on SDS-PAGE: no observable change
72 h post single 50 mg/kg, CDC37 in epichaperomes as surrogate marker
  decrease in epichaperome signal on native PAGE compared to 30 h: approximately 4.15 fold
72 h post-zelavespib administration
  baseline epichaperome target remaining in tumors: approximately 24.09%
